Experiments:
Swiss male mice = test: Acute in vivo toxicity, unique IP injection; settings: mice, from 20 mg/kg/day
CCRF-CEM cells = test: Nucleotides pool measurements; type: cell-based, human; settings: 24 h, dT 200 µM, dC 1 µM, OR0642 1 µM
Procedure: CCRF-CEM cells exposed to compounds (dT (200 µM) and/or dC, OR0642, DI-87 and DI-39 (1 µM)) for 0 and 24 h were washed, counted and pelleted. Pellets were extracted with the cold sampling solution (acetonitrile (4) / methanol (4)/125 mM formic acid (2)), vortexed and placed 1 h at −20 °C. Then centrifuged and evaporated. Central metabolites were separated on an ionic chromatography column IonPac AS11 (250 × 2 mm i.d.; Dionex). Solvent used was KOH at a flow rate of 350 µl/min. The column was then equilibrated for 6 min at the initial conditions before the next sample was analyzed. The volume of injection was 15 µl. High-resolution experiments were performed with an ICS5000+, ion chromatography system (Dionex) system coupled to an Orbitrap Qexactive+ mass spectrometer (Thermo Fisher Scientific, Waltham) equipped with a heated electrospray ionization probe. MS analyses were performed in negative FTMS mode at a resolution of 140,000 (at 400 m/z) in full-scan mode, with the following source parameters: 325 °C for the capillary temperature, 380 °C for the source heater temperature, 50 a.u. (arbitrary unit) for the sheath gas flow rate, 5 a.u. for the auxiliary gas flow rate, 50% for the S-Lens RF level, and 2.75 kV for the source voltage. Metabolites were determined by extracting the exact mass with a tolerance of 5 ppm. Each experiment was performed three times.

dCK-C3S-S74E = test: Isothermal titration calorimetry (ITC); type: binding, human; settings: 25 °C
Sequence of dCK-C3S-S74E (P27707 whole entry S74E, form open): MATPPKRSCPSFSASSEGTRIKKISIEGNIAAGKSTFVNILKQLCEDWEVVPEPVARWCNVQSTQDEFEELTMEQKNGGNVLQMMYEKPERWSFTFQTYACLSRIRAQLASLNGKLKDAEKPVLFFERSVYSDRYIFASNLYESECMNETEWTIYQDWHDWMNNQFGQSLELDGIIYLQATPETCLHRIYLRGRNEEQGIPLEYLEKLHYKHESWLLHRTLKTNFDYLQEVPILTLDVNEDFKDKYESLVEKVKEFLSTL
Description: BL21 pRIL Escherichia coli cells were transformed with dCK-plasmids (dCK-C4S-S74E (for crystallization assays) and dCK-C3S-S74E (for TSA, enzymatic and ITC assays)). Protein dCK-C4S-S74E used for crystallization assays contained four mutations in order to generate better quality crystals (four solvent-exposed cysteine residues were mutated to serine; C9S, C45S, C59S and C146S). Protein dCK-C3S-S74E used for other assays contained only three mutated cysteines. The S74E mutation mimics the phosphorylated state of this serine, which favors the open conformation of the enzyme, making it competent for nucleoside binding[45] to evaluate the binding affinity with compounds. E. coli cells were grown in LB media containing 100 μg/ml ampicillin and 34 μg/ml chloramphenicol at 18 °C for 20 h after induction with 1 mM IPTG.
For binding assays (TSA, ITC and crystallography) cells were re-suspended in 50 mM TRIS, pH 8, 500 mM NaCl, 30 mM imidazole and 10% glycerol buffer and one EDTA free anti-protease tablet was added (Roche). After sonication and centrifugation (30,000 × g), the supernatant was loaded on a 5 ml HisTrap FF column (GE healthcare) pre-equilibrated with resuspension buffer. Protein was then eluted by resuspension buffer containing 500 mM imidazole. Protein eluted fractions were mixed and concentrated. […]

Structure (SMILES) | effect on nucleotide pools (CCRF-CEM cells) | Kd (dCK-C3S-S74E) | other results
CCCN(c1nc(-c2nc(N)cc(N)n2)cs1)c1cc(-c2ccc(CCN3CCN(C)CC3)nc2)ccc1C [OR0602] |  |  | in vivo tolerance (Swiss male mice): unacceptable side effects
CCCN(c1nc(-c2nc(N)cc(N)n2)cs1)c1cc(-c2ccc(S(=O)(=O)N3CCN(C)CC3)cc2C(F)(F)F)ccc1C [OR0642] | did not affect the nucleotide pools |  | 
Cc1ccc(NC(=O)c2ccc(CN3CCN(C)CC3)cc2)cc1Nc1nc(-c2nccc(N)n2)cs1 [dCKi1] |  | 128 nM | 
Cc1ccc(NC(=O)c2ccc(CN3CCN(C)CC3)cc2)cc1Nc1nc(-c2nc(N)cc(N)n2)cs1 [dCKi2, N-(3-((4-(4,6-diaminopyrimidin-2-yl)thiazol-2-yl)amino)-4-methylphenyl)-4-((4-methylpiperazin-1-yl)methyl)benzamide] |  | 37 nM | 
Cc1cn([C@H]2C[C@H](O)[C@@H](CO)O2)c(=O)[nH]c1=O [dT, thymidine] | increased the dTTP pool |  | 

From paper PMC10227015, “From a drug repositioning to a structure-based drug design approach to tackle acute lymphoblastic leukemia” (Nature Communications, 2023)
